Measurements: US9790178B2, “Pyrrolidinyl urea, thiourea, guanidine and cyanoguanidine compounds as TrkA kinase inhibitors” (Array BioPharma Inc., priority 2012, dated 2017)

Legend:
Assay in all cases: KinaseProfiler off-target kinase profiling
Format in all cases: biochemical
Conditions in all cases: 10 μM, ATP near Km
[1] = target: T1, BrSK2 (Homo sapiens, UniProt Q8IWQ3)
T1 construct: purchased Millipore, Inc. (KinaseProfiler service)
How it was run: (§1)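 Values are percent of control (POC), the mean of two replicate runs. The compound was assayed at 10 μM, and the ATP level was set close to the Km of the individual kinase.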

[2] = target: T2, CK1gamma3 (Homo sapiens, UniProt Q9Y6M4)
T2 construct: purchased Millipore, Inc. (KinaseProfiler service)
How it was run: as §1

[3] = target: T3, Lck (Homo sapiens, UniProt P06239)
T3 construct: purchased Millipore, Inc. (KinaseProfiler service)
How it was run: as §1

[4] = target: T4, Fes (Homo sapiens, UniProt P07332)
T4 construct: purchased Millipore, Inc. (KinaseProfiler service)
How it was run: as §1

[5] = target: T5, mTOR (Homo sapiens, UniProt P42345)
T5 construct: purchased Millipore, Inc. (KinaseProfiler service)
How it was run: as §1

[6] = target: T6, FGFR1 (Homo sapiens, UniProt P11362)
T6 construct: purchased Millipore, Inc. (KinaseProfiler service)
How it was run: as §1

[7] = target: T7, LOK (Homo sapiens, UniProt O94804)
T7 construct: purchased Millipore, Inc. (KinaseProfiler service)
How it was run: as §1

[8] = target: T8, PKCepsilon (Homo sapiens, UniProt Q02156)
T8 construct: purchased Millipore, Inc. (KinaseProfiler service)
T8 sequence (Q02156 whole entry): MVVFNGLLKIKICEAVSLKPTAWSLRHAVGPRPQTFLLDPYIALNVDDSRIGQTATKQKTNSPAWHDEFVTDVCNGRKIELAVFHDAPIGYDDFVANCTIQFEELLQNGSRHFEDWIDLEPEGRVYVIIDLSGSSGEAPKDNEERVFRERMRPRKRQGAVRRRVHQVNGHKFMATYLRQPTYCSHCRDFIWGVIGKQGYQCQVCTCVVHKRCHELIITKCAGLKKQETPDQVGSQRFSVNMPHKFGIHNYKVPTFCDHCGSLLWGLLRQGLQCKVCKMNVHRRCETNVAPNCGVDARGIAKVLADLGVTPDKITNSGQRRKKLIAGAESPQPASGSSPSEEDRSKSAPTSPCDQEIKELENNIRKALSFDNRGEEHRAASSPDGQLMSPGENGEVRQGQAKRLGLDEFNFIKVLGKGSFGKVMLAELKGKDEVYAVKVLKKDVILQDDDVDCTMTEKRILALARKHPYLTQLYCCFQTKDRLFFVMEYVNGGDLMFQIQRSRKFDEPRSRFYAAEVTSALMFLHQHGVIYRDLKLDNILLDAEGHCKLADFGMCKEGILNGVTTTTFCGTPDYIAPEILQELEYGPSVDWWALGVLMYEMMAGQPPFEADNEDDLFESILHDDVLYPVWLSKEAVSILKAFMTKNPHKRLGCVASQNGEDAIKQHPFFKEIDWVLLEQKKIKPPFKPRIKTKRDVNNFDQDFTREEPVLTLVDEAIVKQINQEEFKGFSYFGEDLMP
How it was run: as §1

[9] = target: T9, Yes (Homo sapiens, UniProt P07947)
T9 construct: purchased Millipore, Inc. (KinaseProfiler service)
How it was run: as §1

[10] = target: T10, EphB4 (Homo sapiens, UniProt P54760)
T10 construct: purchased Millipore, Inc. (KinaseProfiler service)
How it was run: as §1

[11] = tested on: c-RAF
How it was run: as §1

[12] = target: T11, IR (Homo sapiens, UniProt P06213)
T11 construct: purchased Millipore, Inc. (KinaseProfiler service)
How it was run: as §1

[13] = target: T12, Axl (Homo sapiens, UniProt P30530)
T12 construct: purchased Millipore, Inc. (KinaseProfiler service)
How it was run: as §1

[14] = target: T13, DYRK2 (Homo sapiens, UniProt Q92630)
T13 construct: purchased Millipore, Inc. (KinaseProfiler service)
How it was run: as §1

[15] = target: T14, MAPKAP-K2 (Homo sapiens, UniProt P49137)
T14 construct: purchased Millipore, Inc. (KinaseProfiler service)
How it was run: as §1

[16] = target: T15, Abl2 (Homo sapiens, UniProt P42684)
T15 construct: purchased Millipore, Inc. (KinaseProfiler service)
How it was run: as §1

[17] = target: T16, MuSK (Homo sapiens, UniProt O15146)
T16 construct: purchased Millipore, Inc. (KinaseProfiler service)
T16 sequence (O15146 24-869): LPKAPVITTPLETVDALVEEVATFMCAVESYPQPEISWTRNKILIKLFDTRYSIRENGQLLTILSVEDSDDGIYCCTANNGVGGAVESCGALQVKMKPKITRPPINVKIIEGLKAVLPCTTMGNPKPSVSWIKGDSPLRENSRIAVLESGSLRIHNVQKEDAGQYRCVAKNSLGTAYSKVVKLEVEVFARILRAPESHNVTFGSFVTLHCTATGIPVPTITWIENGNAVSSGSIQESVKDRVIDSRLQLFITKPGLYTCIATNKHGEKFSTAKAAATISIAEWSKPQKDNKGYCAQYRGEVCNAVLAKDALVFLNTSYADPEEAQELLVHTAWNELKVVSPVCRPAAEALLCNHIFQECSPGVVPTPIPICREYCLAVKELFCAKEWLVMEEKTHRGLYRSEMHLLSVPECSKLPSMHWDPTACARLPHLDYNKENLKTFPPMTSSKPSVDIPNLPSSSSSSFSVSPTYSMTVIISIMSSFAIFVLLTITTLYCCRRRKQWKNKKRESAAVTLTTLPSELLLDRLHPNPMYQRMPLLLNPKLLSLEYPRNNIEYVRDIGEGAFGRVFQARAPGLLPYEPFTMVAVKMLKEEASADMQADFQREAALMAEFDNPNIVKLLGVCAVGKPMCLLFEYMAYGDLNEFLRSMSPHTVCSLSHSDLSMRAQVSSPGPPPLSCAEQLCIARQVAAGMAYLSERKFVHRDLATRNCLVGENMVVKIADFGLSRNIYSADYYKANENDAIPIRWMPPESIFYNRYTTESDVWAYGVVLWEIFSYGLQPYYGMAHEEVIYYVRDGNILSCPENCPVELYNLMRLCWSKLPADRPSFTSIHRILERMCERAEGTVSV
How it was run: as §1

[18] = target: T17, PKCalpha (Homo sapiens, UniProt P17252)
T17 construct: purchased Millipore, Inc. (KinaseProfiler service)
How it was run: as §1

[19] = target: T18, ROCK-II (Homo sapiens, UniProt O75116)
T18 construct: purchased Millipore (KinaseProfiler service)
How it was run: as §1

[20] = target: T19, Plk1 (Homo sapiens, UniProt P53350)
T19 construct: purchased Millipore (KinaseProfiler service)
How it was run: as §1

[21] = target: T20, MSSK1 (Homo sapiens, UniProt Q9UPE1)
T20 construct: purchased Millipore, Inc. (KinaseProfiler service)
T20 sequence (Q9UPE1 whole entry): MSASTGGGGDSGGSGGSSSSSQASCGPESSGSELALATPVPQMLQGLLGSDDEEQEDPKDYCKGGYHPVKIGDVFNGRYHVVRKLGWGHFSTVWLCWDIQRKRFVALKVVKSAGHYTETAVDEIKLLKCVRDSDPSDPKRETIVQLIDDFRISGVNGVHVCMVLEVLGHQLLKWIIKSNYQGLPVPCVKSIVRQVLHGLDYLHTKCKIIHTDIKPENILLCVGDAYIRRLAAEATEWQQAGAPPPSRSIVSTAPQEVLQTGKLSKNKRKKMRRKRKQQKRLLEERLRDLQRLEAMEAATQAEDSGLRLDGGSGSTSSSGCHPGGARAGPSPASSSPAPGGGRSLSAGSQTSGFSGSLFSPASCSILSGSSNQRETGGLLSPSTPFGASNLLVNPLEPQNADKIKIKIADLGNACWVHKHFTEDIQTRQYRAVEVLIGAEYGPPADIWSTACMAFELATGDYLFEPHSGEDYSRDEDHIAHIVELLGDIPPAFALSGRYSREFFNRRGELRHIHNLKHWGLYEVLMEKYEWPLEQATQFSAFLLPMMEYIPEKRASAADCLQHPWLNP
How it was run: as §1

[22] = target: T21, CDK5/p35 (Homo sapiens, UniProt Q00535)
T21 construct: purchased Millipore, Inc. (KinaseProfiler service)
How it was run: as §1

[23] = target: T22, PKCzeta (Homo sapiens, UniProt Q05513)
T22 construct: purchased Millipore (KinaseProfiler service)
How it was run: as §1

[24] = target: T23, CK1delta (Homo sapiens, UniProt P48730)
T23 construct: purchased Millipore, Inc. (KinaseProfiler service)
How it was run: as §1

[25] = target: T24, IRR (Homo sapiens, UniProt P14616)
T24 construct: purchased Millipore, Inc. (KinaseProfiler service)
T24 sequence (P14616 27-1297): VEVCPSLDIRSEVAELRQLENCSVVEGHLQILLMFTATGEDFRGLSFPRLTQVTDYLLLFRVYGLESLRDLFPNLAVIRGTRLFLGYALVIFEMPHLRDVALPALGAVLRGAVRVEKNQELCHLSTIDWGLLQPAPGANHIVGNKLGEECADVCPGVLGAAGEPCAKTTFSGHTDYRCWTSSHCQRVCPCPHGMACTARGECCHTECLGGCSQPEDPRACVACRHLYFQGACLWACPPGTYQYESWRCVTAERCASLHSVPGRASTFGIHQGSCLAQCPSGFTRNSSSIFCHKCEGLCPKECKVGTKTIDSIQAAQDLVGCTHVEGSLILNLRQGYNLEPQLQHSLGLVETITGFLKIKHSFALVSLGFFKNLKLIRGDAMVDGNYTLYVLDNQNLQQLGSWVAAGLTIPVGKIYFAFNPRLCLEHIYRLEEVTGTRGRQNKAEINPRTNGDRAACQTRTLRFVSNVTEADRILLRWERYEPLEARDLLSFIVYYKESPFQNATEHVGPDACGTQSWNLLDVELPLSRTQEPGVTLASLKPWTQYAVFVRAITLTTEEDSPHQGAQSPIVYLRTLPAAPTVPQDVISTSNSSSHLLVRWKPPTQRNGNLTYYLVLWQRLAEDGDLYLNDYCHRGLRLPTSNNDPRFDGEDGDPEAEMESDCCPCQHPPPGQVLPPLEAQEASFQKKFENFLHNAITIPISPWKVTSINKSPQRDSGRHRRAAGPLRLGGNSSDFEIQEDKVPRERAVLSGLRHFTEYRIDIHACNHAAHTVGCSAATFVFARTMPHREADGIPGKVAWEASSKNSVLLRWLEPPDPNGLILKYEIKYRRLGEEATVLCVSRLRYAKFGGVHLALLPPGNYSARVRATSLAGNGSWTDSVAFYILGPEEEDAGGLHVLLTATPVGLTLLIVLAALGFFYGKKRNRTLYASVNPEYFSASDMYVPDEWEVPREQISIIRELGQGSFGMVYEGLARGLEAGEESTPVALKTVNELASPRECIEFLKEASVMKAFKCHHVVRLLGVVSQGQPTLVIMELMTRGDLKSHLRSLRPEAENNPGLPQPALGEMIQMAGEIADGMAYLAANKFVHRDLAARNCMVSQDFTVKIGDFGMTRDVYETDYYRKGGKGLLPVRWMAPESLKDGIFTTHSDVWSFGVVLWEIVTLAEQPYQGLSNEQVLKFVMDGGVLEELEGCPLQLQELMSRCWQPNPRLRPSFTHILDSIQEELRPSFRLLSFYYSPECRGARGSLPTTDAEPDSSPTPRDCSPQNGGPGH
How it was run: as §1

[26] = target: T25, TSSK1 (Homo sapiens, UniProt Q9BXA7)
T25 construct: purchased Millipore, Inc. (KinaseProfiler service)
How it was run: as §1

[27] = target: T26, Rsk4 (Homo sapiens, UniProt Q9UK32)
T26 construct: purchased Millipore, Inc. (KinaseProfiler service)
How it was run: as §1

[28] = target: T27, p38delta (Homo sapiens, UniProt O15264)
T27 construct: purchased Millipore, Inc. (KinaseProfiler service)
How it was run: as §1

[29] = target: T28, TEC Activated (Homo sapiens, UniProt P42680)
T28 construct: purchased Millipore, Inc. (KinaseProfiler service)
How it was run: as §1

[30] = target: T29, ROCK-I (Homo sapiens, UniProt Q13464)
T29 construct: purchased Millipore (KinaseProfiler service)
T29 sequence (Q13464 whole entry): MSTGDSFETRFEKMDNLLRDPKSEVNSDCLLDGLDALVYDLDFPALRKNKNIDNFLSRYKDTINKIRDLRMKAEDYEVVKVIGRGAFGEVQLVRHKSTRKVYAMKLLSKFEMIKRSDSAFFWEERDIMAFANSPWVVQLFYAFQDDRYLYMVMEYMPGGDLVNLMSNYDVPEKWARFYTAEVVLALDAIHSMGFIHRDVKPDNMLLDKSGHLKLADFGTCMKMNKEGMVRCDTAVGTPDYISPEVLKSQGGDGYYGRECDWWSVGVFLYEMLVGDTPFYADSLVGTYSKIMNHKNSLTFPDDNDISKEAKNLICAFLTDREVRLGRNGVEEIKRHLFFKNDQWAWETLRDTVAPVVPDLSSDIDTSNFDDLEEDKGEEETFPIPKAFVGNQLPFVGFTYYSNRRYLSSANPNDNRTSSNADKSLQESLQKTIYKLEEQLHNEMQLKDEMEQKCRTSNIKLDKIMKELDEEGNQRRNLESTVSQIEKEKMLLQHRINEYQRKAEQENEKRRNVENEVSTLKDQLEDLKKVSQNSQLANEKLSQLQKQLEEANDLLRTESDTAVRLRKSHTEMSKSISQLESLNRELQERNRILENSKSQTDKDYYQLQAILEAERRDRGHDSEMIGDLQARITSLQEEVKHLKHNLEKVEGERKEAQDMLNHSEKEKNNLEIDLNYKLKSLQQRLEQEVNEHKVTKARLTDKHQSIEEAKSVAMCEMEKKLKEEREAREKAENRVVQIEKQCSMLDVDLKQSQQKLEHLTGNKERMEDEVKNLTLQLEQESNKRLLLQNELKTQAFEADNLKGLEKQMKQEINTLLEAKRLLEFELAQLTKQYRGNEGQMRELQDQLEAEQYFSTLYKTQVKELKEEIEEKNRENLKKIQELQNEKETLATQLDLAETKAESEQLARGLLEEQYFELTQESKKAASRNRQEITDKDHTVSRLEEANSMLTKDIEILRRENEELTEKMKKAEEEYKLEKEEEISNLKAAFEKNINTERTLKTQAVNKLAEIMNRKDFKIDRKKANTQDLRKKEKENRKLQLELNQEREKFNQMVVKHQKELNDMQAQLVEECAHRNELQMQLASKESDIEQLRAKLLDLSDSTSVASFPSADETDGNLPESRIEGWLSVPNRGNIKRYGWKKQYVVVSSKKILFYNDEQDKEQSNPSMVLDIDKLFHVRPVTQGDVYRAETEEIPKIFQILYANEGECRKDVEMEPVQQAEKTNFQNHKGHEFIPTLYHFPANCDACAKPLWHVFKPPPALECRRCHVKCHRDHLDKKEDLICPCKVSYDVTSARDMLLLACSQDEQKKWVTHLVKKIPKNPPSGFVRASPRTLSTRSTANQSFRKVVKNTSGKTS
How it was run: as §1

[31] = target: T30, Tie2 (Homo sapiens, UniProt Q02763)
T30 construct: purchased Millipore, Inc. (KinaseProfiler service)
How it was run: as §1

[32] = target: T31, PRK2 (Homo sapiens, UniProt Q16513)
T31 construct: purchased Millipore (KinaseProfiler service)
How it was run: as §1

[33] = target: T32, DDR2 (Homo sapiens, UniProt Q16832)
T32 construct: purchased Millipore, Inc. (KinaseProfiler service)
How it was run: as §1

[34] = target: T33, PKCiota (Homo sapiens, UniProt P41743)
T33 construct: purchased Millipore (KinaseProfiler service)
How it was run: as §1

[35] = target: T34, Flt1 (Homo sapiens, UniProt P17948)
T34 construct: purchased Millipore, Inc. (KinaseProfiler service)
How it was run: as §1

[36] = target: T35, Hck (Homo sapiens, UniProt P08631)
T35 construct: purchased Millipore, Inc. (KinaseProfiler service)
How it was run: as §1

[37] = target: T36, ALK (Homo sapiens, UniProt Q9UM73)
T36 construct: purchased Millipore, Inc. (KinaseProfiler service)
How it was run: as §1

[38] = target: T37, AMPK(A1/B1/G1) (Homo sapiens, UniProt Q13131)
T37 construct: purchased Millipore, Inc. (KinaseProfiler service)
How it was run: as §1

[39] = target: T38, JNK3 (Homo sapiens, UniProt P53779)
T38 construct: purchased Millipore, Inc. (KinaseProfiler service)
How it was run: as §1

[40] = target: T39, SIK (Homo sapiens, UniProt P57059)
T39 construct: purchased Millipore, Inc. (KinaseProfiler service)
How it was run: as §1

[41] = target: T40, CDK6/cyclinD3 (Homo sapiens, UniProt Q00534)
T40 construct: purchased Millipore, Inc. (KinaseProfiler service)
How it was run: as §1

Avg. POC [1]: 116 POC
Avg. POC [2]: 112 POC
Avg. POC [3]: 135.5 POC
Avg. POC [4]: 113.5 POC
Avg. POC [5]: 108 POC
Avg. POC [6]: 102 POC
Avg. POC [7]: 108.5 POC
Avg. POC [8]: 107.5 POC
Avg. POC [9]: 109 POC
Avg. POC [10]: 102 POC
Avg. POC [11]: 118.5 POC
Avg. POC [12]: 87.5 POC
Avg. POC [13]: 97 POC
Avg. POC [14]: 85.5 POC
Avg. POC [15]: 106.5 POC
Avg. POC [16]: 112.5 POC
Avg. POC [17]: 108.5 POC
Avg. POC [18]: 103.5 POC
Avg. POC [19]: 122 POC
Avg. POC [20]: 104 POC
Avg. POC [21]: 108.5 POC
Avg. POC [22]: 121 POC
Avg. POC [23]: 104 POC
Avg. POC [24]: 93 POC
Avg. POC [25]: 96 POC
Avg. POC [26]: 107 POC
Avg. POC [27]: 147 POC
Avg. POC [28]: 105 POC
Avg. POC [29]: 107 POC
Avg. POC [30]: 95.5 POC
Avg. POC [31]: 119 POC
Avg. POC [32]: 104 POC
Avg. POC [33]: 106 POC
Avg. POC [34]: 101.5 POC
Avg. POC [35]: 100 POC
Avg. POC [36]: 110 POC
Avg. POC [37]: 114 POC
Avg. POC [38]: 108.5 POC
Avg. POC [39]: 124.5 POC
Avg. POC [40]: 97.5 POC
Avg. POC [41]: 103.5 POC
Compound: COCCN1C[C@@H](NC(=O)Nc2c(-c3ccccc3)nc3c(C)nccn23)[C@H](c2ccc(F)c(F)c2)C1 [Example 20, 1-((3S,4R)-4-(3,4-difluorophenyl)-1-(2-methoxyethyl)pyrrolidin-3-yl)-3-(8-methyl-2-phenylimidazo[1,2-a]pyrazin-3-yl)urea]
